Test results taken from patent US20240366626A1, “OPHTHALMIC PREPARATION FOR MYOPIA SUPPRESSION” (TSUBOTA LABORATORY, INC., priority 2021, published 2024).
Entries after “also recorded” stand apart in the source; their conditions may differ. Structures can show the parent of a compound that is named as a salt.

System: mouse myopia model
Assay: Mouse myopia model (−30D lens on right eye, 0D on left), eye drops for three weeks; change in refractive index and axial length measured
Type: in vivo, mice (C57BL6/J)
Conditions: for myopia suppressing effect (overall conclusion): mouse myopia model, eye drops for three weeks; for change in refractive index / change in axial length: −30D lens eyes vs OD lens eyes after three weeks of eye drops, bunazosin two drops once or twice per day, unoprostone two drops once per day; for change in refractive index: infrared photorefractor; for change in axial length: spectral domain OCT
Procedure: The present inventors, with a focus on the fact that certain glaucoma ophthalmic preparations are effective in suppressing myopia progression, attempted to find myopia progression suppressing effects from existing glaucoma ophthalmic preparations. In the present application, glaucoma ophthalmic preparations were administered to a mouse myopia model, and an axial length and a refractive index were measured to evaluate whether the eye drops were effective in suppressing the progression of axial myopia.
Eye drops were continuously administered for three weeks, with phosphate buffered saline (PBS) eye drops as the control group and bunazosin eye drops as the test group. Bunazosin is the main ingredient of a Detantol ophthalmic solution, and bunazosin eye drops were administered using Detantol 0.01% ophthalmic solution (manufactured by Santen Pharmaceutical Co. Ltd., 1 mL contains 0.1 mg of bunazosin hydrochloride). The number of eye drops was two drops once per day and twice a day (two drops each in the morning and evening). The refractive index and the axial length of the mouse eyeball after three weeks were measured and the amounts of change were calculated.
The refractive values were measured by using an infrared photorefractor for mice (manufactured by Prof. Schaeffel, University of Tubingen). The axial lengths were measured by using spectral domain optical coherence tomography (Envisu R4310, manufactured by Leica).
Mice similar to those in Experiment 1 were used to induce myopia. Eye drops were continually administered for three weeks, with PBS eye drops as the control group and unoprostone eye drops as the test group. Unoprostone is the main ingredient of a Rescula ophthalmic solution, and unoprostone eye drops were administered (two drops once per day, per eye) with Rescula ophthalmic solution 0.12% (Nitto Medic Co., Ltd., 1 mL contains 1.2 mg of isopropyl unoprostone). The refractive index and the axial length of the mouse eyeball after three weeks were measured and the amounts of change were calculated. The refractive index measurement and the axial length measurement were the same as in Experiment 1.

[1] = two drops once per day vs twice a day, three weeks

| Compound | myopia suppressing effect (overall conclusion) | change in refractive index | change in axial length | myopia suppressing effect (overall conclusion) (hydrochloride) | comparison of dosing frequency (once vs twice per day), axial length [1] | comparison of dosing frequency (once vs twice per day), refractive index [1] |
| --- | --- | --- | --- | --- | --- | --- |
| CCCCCCCC(=O)CC[C@@H]1[C@@H](C/C=C\CCCC(=O)OC(C)C)[C@@H](O)C[C@H]1O [unoprostone, isopropyl unoprostone] | did not exhibit a myopia suppressing effect; also recorded: does not exhibit a myopia suppressing effect | both eyes became myopic and no myopia suppressing effect of the eye drops was confirmed | no significant difference in the axial lengths of the two eyes was confirmed |  |  |  |
| CCCC(=O)N1CCCN(c2nc(N)c3cc(OC)c(OC)cc3n2)CC1 [bunazosin, bunazosin hydrochloride] |  | no significant difference between the eyes with the −30D lenses and the eyes with OD lenses | substantially no difference in the axial lengths between the two eyes | exhibited a myopia-suppressing effect; also recorded: exhibits a myopia suppressing effect | no difference between one eye drop and two eye drops | one eye drop has a greater myopia suppressing effect than two eye drops |
